Several values for one entry are separate records, joined by “and”; a condition that tells them apart may be missing. Identical values can stand only once.
Key:
Assay in all cases: Kinase inhibition screen, cell-free 33P ATP assay at 10 μM
Assay type in all cases: biochemical
[1] = molecular target: 140 purified human kinases (Homo sapiens, UniProt Q9H2X6)
How it was run: (§1)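 Each complex tested in duplicate at 10 μM; cell-free radiometric assay using ^33P ATP on purified enzymes. Hits mapped by HGNC symbol onto the kinome tree.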

[2] = molecular target: T1, 140 purified human kinases (Homo sapiens, UniProt Q7L7X3)
T1 sequence (Q7L7X3 1-1001): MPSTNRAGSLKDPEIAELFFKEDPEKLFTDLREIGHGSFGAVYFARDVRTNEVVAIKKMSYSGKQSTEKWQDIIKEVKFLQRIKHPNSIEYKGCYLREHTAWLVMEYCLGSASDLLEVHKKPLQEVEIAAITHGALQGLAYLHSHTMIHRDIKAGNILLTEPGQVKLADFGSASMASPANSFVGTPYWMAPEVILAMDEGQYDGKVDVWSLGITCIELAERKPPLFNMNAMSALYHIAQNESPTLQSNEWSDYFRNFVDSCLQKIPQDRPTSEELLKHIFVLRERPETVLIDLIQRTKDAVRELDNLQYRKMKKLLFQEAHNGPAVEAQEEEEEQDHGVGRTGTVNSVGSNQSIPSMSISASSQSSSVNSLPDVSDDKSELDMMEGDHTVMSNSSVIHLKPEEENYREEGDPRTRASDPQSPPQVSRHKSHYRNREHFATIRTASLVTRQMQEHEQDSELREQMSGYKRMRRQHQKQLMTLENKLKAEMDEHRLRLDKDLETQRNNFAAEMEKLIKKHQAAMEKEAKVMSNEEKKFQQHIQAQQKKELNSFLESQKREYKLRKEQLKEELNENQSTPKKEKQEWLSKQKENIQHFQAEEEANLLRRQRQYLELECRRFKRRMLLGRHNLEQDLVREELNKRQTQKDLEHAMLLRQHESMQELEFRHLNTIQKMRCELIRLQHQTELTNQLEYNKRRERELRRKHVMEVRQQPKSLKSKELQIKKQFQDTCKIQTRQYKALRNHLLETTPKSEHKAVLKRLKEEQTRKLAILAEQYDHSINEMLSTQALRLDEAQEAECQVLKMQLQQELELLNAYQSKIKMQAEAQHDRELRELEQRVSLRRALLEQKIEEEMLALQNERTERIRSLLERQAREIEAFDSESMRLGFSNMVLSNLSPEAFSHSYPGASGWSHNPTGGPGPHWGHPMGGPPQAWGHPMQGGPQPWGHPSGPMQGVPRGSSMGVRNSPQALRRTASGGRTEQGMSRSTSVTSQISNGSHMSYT
How it was run: as §1

[3] = molecular target: 140 purified human kinases (Homo sapiens, UniProt Q8N4C8)
How it was run: as §1

[4] = molecular target: 140 purified human kinases (Homo sapiens, UniProt Q13882); conditions: BRK
140 purified human kinases (Homo sapiens, UniProt Q13882), sequence (Q13882 whole entry): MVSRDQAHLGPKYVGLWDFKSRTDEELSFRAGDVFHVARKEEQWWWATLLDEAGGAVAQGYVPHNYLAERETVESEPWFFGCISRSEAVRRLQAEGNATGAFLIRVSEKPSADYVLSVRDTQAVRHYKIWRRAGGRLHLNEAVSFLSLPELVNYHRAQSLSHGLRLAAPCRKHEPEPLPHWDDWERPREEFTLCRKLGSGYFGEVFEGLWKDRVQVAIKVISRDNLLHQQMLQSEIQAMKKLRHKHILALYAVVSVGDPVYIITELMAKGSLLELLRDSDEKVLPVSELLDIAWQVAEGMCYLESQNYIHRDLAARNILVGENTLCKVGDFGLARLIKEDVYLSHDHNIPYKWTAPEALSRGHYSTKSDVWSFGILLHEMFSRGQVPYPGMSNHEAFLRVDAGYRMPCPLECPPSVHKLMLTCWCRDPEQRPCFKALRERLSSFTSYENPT
How it was run: as §1

[5] = molecular target: T2, Src (Homo sapiens, UniProt P12931); conditions: for kinase activity of Src: 10 μM complex, cell-free screen; for % Activity Run 1 / % Activity Run 2: 10 µM
T2 construct: His tag (N); host or cells: baculovirus expression system
T2 sequence (P12931 whole entry): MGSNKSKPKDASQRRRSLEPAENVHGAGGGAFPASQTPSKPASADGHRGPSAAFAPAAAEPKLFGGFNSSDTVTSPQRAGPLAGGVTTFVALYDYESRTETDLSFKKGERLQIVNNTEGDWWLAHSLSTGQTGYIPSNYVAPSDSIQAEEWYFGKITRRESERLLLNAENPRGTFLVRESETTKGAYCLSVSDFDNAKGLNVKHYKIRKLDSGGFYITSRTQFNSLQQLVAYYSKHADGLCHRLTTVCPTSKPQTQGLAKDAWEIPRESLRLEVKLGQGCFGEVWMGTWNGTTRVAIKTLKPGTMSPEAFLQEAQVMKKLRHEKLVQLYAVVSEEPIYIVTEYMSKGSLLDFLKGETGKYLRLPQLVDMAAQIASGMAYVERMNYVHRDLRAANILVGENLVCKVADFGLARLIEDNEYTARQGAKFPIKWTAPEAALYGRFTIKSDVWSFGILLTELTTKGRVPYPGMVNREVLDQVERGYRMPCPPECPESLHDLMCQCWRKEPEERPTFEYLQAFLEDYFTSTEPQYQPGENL
How it was run: as §1

[6] = molecular target: 140 purified human kinases (Homo sapiens, UniProt Q16513)
How it was run: as §1

[7] = molecular target: 140 purified human kinases (Homo sapiens, UniProt Q15759); conditions: p38b MAPK
140 purified human kinases (Homo sapiens, UniProt Q15759), sequence (Q15759 whole entry): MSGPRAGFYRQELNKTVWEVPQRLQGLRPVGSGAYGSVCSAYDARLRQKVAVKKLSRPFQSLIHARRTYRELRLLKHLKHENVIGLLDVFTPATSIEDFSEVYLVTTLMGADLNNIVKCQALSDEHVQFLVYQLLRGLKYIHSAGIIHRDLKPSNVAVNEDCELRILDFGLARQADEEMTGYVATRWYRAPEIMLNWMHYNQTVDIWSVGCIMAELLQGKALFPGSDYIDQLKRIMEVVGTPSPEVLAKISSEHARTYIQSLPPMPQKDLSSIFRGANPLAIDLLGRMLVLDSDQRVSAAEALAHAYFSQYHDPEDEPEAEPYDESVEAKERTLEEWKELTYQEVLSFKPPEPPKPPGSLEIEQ
How it was run: as §1

[8] = molecular target: 140 purified human kinases (Homo sapiens, UniProt P45984)
140 purified human kinases (Homo sapiens, UniProt P45984), sequence (P45984 whole entry): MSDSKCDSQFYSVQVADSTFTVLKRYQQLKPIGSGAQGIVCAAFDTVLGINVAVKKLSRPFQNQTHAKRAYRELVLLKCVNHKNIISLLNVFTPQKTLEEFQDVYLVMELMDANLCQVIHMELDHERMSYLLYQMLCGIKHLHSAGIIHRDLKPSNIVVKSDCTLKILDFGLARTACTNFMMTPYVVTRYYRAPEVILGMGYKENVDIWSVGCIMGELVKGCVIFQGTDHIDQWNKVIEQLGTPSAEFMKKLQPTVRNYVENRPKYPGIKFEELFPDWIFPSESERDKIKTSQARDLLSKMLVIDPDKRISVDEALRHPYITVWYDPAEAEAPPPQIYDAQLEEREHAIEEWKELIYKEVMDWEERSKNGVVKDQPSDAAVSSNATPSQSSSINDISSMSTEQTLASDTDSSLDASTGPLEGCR
How it was run: as §1

[9] = molecular target: 140 purified human kinases (Homo sapiens, UniProt Q5TCY1)
How it was run: as §1

[10] = molecular target: 140 purified human kinases (Homo sapiens, UniProt P29317)
140 purified human kinases (Homo sapiens, UniProt P29317), sequence (P29317 24-976): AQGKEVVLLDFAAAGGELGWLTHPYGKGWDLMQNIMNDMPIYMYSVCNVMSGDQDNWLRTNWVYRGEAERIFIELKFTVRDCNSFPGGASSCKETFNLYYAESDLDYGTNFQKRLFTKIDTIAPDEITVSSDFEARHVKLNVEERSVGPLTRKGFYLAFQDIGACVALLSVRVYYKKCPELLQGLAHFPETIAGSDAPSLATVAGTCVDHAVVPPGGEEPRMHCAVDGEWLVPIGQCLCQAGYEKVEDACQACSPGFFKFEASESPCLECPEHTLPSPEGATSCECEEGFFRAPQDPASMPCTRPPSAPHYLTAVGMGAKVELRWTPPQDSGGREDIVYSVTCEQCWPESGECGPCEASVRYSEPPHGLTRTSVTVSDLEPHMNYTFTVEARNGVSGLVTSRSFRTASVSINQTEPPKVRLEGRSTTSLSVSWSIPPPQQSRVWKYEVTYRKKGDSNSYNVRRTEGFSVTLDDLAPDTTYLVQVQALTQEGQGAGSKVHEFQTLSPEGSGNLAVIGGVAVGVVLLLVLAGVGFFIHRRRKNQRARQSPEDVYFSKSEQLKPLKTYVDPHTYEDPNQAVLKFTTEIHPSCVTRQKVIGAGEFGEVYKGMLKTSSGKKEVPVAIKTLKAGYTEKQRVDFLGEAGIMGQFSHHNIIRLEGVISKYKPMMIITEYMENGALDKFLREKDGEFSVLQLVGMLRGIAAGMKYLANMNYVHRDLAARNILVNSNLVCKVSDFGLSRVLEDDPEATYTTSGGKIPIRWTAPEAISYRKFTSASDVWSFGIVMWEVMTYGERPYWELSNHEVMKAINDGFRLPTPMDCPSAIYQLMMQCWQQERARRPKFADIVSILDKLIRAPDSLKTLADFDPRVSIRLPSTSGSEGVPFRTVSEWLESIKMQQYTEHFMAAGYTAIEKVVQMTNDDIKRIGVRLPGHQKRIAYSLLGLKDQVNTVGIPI
How it was run: as §1

[11] = molecular target: 140 purified human kinases (Homo sapiens, UniProt Q86Z02)
How it was run: as §1

[12] = molecular target: 140 purified human kinases (Homo sapiens, UniProt O43353)
140 purified human kinases (Homo sapiens, UniProt O43353), sequence (O43353 whole entry): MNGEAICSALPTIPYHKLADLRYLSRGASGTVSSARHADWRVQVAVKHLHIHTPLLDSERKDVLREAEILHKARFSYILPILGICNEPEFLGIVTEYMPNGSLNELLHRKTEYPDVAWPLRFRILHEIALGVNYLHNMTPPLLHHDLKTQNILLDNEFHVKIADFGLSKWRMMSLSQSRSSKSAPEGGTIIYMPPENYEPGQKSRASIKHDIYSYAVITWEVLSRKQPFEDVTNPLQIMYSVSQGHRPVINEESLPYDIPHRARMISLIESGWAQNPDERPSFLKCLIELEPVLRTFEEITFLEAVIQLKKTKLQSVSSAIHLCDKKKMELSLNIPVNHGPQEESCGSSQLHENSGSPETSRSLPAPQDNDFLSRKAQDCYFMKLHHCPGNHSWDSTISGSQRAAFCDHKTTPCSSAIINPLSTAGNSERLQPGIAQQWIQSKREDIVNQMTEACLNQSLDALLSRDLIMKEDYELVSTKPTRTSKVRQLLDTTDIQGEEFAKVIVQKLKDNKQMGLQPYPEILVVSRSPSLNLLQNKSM
How it was run: as §1

[13] = molecular target: 140 purified human kinases (Homo sapiens, UniProt P06239); conditions: Lck
140 purified human kinases (Homo sapiens, UniProt P06239), sequence (P06239 whole entry): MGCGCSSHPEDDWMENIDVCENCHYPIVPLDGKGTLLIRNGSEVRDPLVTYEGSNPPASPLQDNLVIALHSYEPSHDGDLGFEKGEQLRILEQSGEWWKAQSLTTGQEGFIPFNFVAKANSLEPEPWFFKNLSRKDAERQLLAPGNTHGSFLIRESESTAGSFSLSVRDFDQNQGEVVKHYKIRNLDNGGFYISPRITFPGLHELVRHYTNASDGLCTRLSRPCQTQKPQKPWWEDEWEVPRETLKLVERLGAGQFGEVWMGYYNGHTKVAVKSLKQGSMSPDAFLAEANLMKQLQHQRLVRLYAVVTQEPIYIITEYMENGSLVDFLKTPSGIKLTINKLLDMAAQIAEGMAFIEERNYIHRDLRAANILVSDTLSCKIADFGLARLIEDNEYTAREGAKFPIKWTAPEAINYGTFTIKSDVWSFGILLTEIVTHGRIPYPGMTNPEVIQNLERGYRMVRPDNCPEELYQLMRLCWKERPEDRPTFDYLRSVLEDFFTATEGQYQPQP
How it was run: as §1

140 purified human kinases (Homo sapiens, UniProt Q9H2X6), sequence (Q9H2X6 whole entry): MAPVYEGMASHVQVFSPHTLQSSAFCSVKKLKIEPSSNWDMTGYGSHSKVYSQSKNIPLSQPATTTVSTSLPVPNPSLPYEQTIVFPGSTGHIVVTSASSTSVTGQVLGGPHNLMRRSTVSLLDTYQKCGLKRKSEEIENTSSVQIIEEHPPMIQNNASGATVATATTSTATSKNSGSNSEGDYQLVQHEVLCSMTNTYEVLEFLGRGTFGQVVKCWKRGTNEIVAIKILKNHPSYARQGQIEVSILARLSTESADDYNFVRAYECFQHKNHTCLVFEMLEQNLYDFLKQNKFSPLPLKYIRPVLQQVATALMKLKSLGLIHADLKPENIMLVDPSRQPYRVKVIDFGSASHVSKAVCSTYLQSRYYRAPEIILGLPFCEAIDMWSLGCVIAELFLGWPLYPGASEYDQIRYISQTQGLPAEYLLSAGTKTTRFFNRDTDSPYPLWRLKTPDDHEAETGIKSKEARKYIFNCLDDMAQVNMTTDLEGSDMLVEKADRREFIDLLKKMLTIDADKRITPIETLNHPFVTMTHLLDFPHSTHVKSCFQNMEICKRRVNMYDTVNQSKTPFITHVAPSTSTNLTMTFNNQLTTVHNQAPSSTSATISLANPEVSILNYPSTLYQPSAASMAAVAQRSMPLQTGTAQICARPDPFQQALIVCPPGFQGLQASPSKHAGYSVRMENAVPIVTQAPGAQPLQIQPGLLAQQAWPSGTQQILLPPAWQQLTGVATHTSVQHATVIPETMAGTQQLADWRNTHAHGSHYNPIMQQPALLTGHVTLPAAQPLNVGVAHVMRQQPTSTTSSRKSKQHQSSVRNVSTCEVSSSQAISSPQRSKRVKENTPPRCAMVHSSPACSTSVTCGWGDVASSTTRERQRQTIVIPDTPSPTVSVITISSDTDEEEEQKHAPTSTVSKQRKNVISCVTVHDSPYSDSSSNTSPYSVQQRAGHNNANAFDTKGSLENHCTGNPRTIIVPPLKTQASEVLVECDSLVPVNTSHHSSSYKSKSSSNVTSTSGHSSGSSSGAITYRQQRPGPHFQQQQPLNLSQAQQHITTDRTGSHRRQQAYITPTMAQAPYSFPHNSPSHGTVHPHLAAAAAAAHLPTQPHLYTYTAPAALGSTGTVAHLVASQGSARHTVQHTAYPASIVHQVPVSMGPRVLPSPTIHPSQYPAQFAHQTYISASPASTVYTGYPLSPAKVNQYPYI

For `[Cu+2].[Cu+2].[Cu+2].c1ccc(-c2csc(NCCN(CCNc3nc(-c4ccccn4)cs3)CCNc3nc(-c4ccccn4)cs3)n2)nc1.c1ccc(-c2csc(NCCN(CCNc3nc(-c4ccccn4)cs3)CCNc3nc(-c4ccccn4)cs3)n2)nc1` [[L2Cu3]6+], the “% Inhibition Run 1” value ([1]; HIPK2) was 50.5%, the “% Inhibition Run 2” value ([1]; HIPK2) was 45.5% and the “% Inhibition, Mean” value ([1]; HIPK2) was 48%. For the same molecule, the mean % activity ([1]; HIPK2) was 52%, the “% activity” value ([1]; HIPK2, Run 1) was 49.5% and the “% activity” value ([1]; HIPK2, Run 2) was 54.5%. For the same molecule, the “% Activation, Mean value” ([2]; TAO1) was 10%, the “% Inhibition Run 1” value ([2]; TAO1) was -6.6% and the “% Inhibition Run 2” value ([2]; TAO1) was -13.8%. The “% Inhibition, Mean” value ([2]; TAO1) was -10%, the mean % activity ([2]; TAO1) was 110% and the “% activity” value ([2]; TAO1, Run 1) was 106.6%. The “% activity” value ([2]; TAO1, Run 2) was 113.8%, the “% Activity Run 1” value ([2]; TAO1, 10 µM) was 106.60% and the “% Activity Run 2” value ([2]; TAO1, 10 µM) was 113.80%. For the same molecule, the “% Inhibition Run 1” value ([3]; MINK1) was 70%, the “% Inhibition Run 2” value ([3]; MINK1) was 78.2% and the “% Inhibition, Mean” value ([3]; MINK1) was 74%. For the same molecule, the mean % activity ([3]; MINK1) was 26%, the “% activity” value ([3]; MINK1, Run 1) was 30% and the “% activity” value ([3]; MINK1, Run 2) was 21.8%. For the same molecule, the “% Inhibition Run 1” value [4] was 67.9%, the “% Inhibition Run 2” value [4] was 57.6% and the “% Inhibition, Mean” value [4] was 63%. For the same molecule, the mean % activity [4] was 37%, the “% activity” value ([4]; Run 1) was 32.1% and the “% activity” value ([4]; Run 2) was 42.4%. For the same molecule, the “kinase activity of Src” value [5] was “increased”, the “% Activation, Mean value” ([5]; Src) was 115% and the “% Inhibition Run 1” value ([5]; Src) was -109.2%. The “% Inhibition Run 2” value ([5]; Src) was -121.7%, the “% Inhibition, Mean” value ([5]; Src) was -115% and the mean % activity ([5]; Src) was 215%. The “% activity” value ([5]; Src, Run 1) was 209.2%, the “% activity” value ([5]; Src, Run 2) was 221.7% and the “% Activity Run 1” value ([5]; Src) was 209.20%. For the same molecule, the “% Activity Run 2” value ([5]; Src) was 221.70%, the “% Inhibition Run 1” value ([6]; PRK2) was 87.9% and the “% Inhibition Run 2” value ([6]; PRK2) was 85.6%. For the same molecule, the “% Inhibition, Mean” value ([6]; PRK2) was 87%, the mean % activity ([6]; PRK2) was 13% and the “% activity” value ([6]; PRK2, Run 1) was 12.1%. The “% activity” value ([6]; PRK2, Run 2) was 14.4%, the “% Inhibition Run 1” value [7] was 24.1% and the “% Inhibition Run 2” value [7] was 0.3%. The “% Inhibition, Mean” value [7] was 12%, the mean % activity [7] was 88% and the “% activity” value ([7]; Run 1) was 75.9%. For the same molecule, the “% activity” value ([7]; Run 2) was 99.7%, the “% Inhibition Run 1” value ([8]; JNK2) was 22.9% and the “% Inhibition Run 2” value ([8]; JNK2) was 15.4%. For the same molecule, the “% Inhibition, Mean” value ([8]; JNK2) was 19%, the mean % activity ([8]; JNK2) was 81% and the “% activity” value ([8]; JNK2, Run 1) was 77.1%. The “% activity” value ([8]; JNK2, Run 2) was 84.6%, the “% Activation, Mean value” ([9]; TTBK1) was 9% and the “% Inhibition Run 1” value ([9]; TTBK1) was 10%. For the same molecule, the “% Inhibition Run 2” value ([9]; TTBK1) was -27.8%, the “% Inhibition, Mean” value ([9]; TTBK1) was -9% and the mean % activity ([9]; TTBK1) was 109%. The “% activity” value ([9]; TTBK1, Run 1) was 90%, the “% activity” value ([9]; TTBK1, Run 2) was 127.8% and the “% Inhibition Run 1” value ([10]; EPH-A2) was 3.5%. For the same molecule, the “% Inhibition Run 2” value ([10]; EPH-A2) was 9.8%, the “% Inhibition, Mean” value ([10]; EPH-A2) was 6.65% and the mean % activity ([10]; EPH-A2) was 93%. For the same molecule, the “% activity” value ([10]; EPH-A2, Run 1) was 96.5%, the “% activity” value ([10]; EPH-A2, Run 2) was 90.2% and the “% Inhibition Run 1” value ([11]; HIPK1) was 90.8%. For the same molecule, the “% Inhibition Run 2” value ([11]; HIPK1) was 84.1%, the “% Inhibition, Mean” value ([11]; HIPK1) was 87% and the mean % activity ([11]; HIPK1) was 13%. For the same molecule, the “% activity” value ([11]; HIPK1, Run 1) was 9.2%, the “% activity” value ([11]; HIPK1, Run 2) was 15.9% and the “% Inhibition Run 1” value ([12]; RIPK2) was 16.3%. For the same molecule, the “% Inhibition Run 2” value ([12]; RIPK2) was 2.5%, the “% Inhibition, Mean” value ([12]; RIPK2) was 9% and the mean % activity ([12]; RIPK2) was 91%. The “% activity” value ([12]; RIPK2, Run 1) was 83.7%, the “% activity” value ([12]; RIPK2, Run 2) was 97.5% and the “% Inhibition Run 1” value [13] was 64.9%. For the same molecule, the “% Inhibition Run 2” value [13] was 65.8%, the “% Inhibition, Mean” value [13] was 65% and the mean % activity [13] was 35%. For the same molecule, the “% activity” value ([13]; Run 1) was 35.1% and the “% activity” value ([13]; Run 2) was 34.2%.
`CC(=O)[O-].CC(=O)[O-].CC(=O)[O-].CC(=O)[O-].CC(=O)[O-].CC(=O)[O-].[Zn+2].[Zn+2].[Zn+2].c1ccc(-c2csc(NCCN(CCNc3nc(-c4ccccn4)cs3)CCNc3nc(-c4ccccn4)cs3)n2)nc1.c1ccc(-c2csc(NCCN(CCNc3nc(-c4ccccn4)cs3)CCNc3nc(-c4ccccn4)cs3)n2)nc1` [[L2Zn3]6+] was tested, and the “% Inhibition, Mean” value ([1]; HIPK2) was 12%, the mean % activity ([1]; HIPK2) was 88% and the “% activity” value ([1]; HIPK2, duplicate runs) was 76% and 100%. The “% Activation, Mean value” ([2]; TAO1) was 8%, the “% Inhibition, Mean” value ([2]; TAO1) was -8% and the mean % activity ([2]; TAO1) was 108%. For the same molecule, the “% activity” value ([2]; TAO1, duplicate runs) was 93% and 122%, the “% Inhibition, Mean” value ([3]; MINK1) was 67% and the “% Inhibition, Run 1 / Run 2” value ([3]; MINK1) was 72% and 62%. The mean % activity ([3]; MINK1) was 33%, the “% activity” value ([3]; MINK1, duplicate runs) was 28% and 38% and the “% Inhibition, Mean” value [4] was 76%. For the same molecule, the “% Inhibition, Run 1 / Run 2” value [4] was 83% and 69%, the mean % activity [4] was 24% and the “% activity” value ([4]; duplicate runs) was 17% and 31%. The “kinase activity of Src” value [5] was “increased”, the “% Activation, Mean value” ([5]; Src) was 75% and the “% Inhibition, Mean” value ([5]; Src) was -75%. For the same molecule, the mean % activity ([5]; Src) was 175%, the “% Activity Run 1” value ([5]; Src) was 169.0% and the “% Activity Run 2” value ([5]; Src) was 180.0%. For the same molecule, the “% activity” value ([5]; Src, duplicate runs) was 169% and 180%, the “% Inhibition, Mean” value ([6]; PRK2) was 71% and the “% Inhibition, Run 1 / Run 2” value ([6]; PRK2) was 77% and 65%. For the same molecule, the mean % activity ([6]; PRK2) was 29%, the “% activity” value ([6]; PRK2, duplicate runs) was 23% and 35% and the “% Inhibition, Mean” value [7] was -0.45%. The “% Inhibition, Run 1 / Run 2” value [7] was 0.2% and -1.1%, the mean % activity [7] was 100% and the “% activity” value ([7]; duplicate runs) was 100% and 101%. For the same molecule, the “% Inhibition, Mean” value ([8]; JNK2) was 31%, the “% Inhibition, Run 1 / Run 2” value ([8]; JNK2) was 33% and 28% and the mean % activity ([8]; JNK2) was 70%. The “% activity” value ([8]; JNK2, duplicate runs) was 67% and 72%, the “% Activation, Mean value” ([9]; TTBK1) was 8% and the “% Inhibition, Mean” value ([9]; TTBK1) was -8%. For the same molecule, the mean % activity ([9]; TTBK1) was 108%, the “% activity” value ([9]; TTBK1, duplicate runs) was 97% and 119% and the “% Inhibition, Mean” value ([10]; EPH-A2) was 19%. The “% Inhibition, Run 1 / Run 2” value ([10]; EPH-A2) was 21% and 17%, the mean % activity ([10]; EPH-A2) was 81% and the “% activity” value ([10]; EPH-A2, duplicate runs) was 79% and 83%. The “% Inhibition, Mean” value ([11]; HIPK1) was 14%, the mean % activity ([11]; HIPK1) was 86% and the “% activity” value ([11]; HIPK1, duplicate runs) was 92% and 81%. For the same molecule, the “% Inhibition, Mean” value ([12]; RIPK2) was 5.55%, the “% Inhibition, Run 1 / Run 2” value ([12]; RIPK2) was 8% and 3% and the mean % activity ([12]; RIPK2) was 94%. The “% activity” value ([12]; RIPK2, duplicate runs) was 92% and 97%, the “% Inhibition, Mean” value [13] was 44% and the “% Inhibition, Run 1 / Run 2” value [13] was 51% and 36%. For the same molecule, the mean % activity [13] was 56% and the “% activity” value ([13]; duplicate runs) was 49% and 64%.
